The results in this text go back to article PMC9321647, “Curcumin-Based β-Diketo Ligands for Ga^3+: Thermodynamic Investigation of Potential Metal-Based Drugs” (Pharmaceuticals, 2022).

Data set [1] in a line: Iron-chelating ability by spectrophotometric analysis / transmetalation. Type of data set: physicochemical. The settings on record: for logβ124(Fe): Fe^3+, same conditions as Ga^3+ systems. The text has this: Compounds 4 and 5 were selected to evaluate iron-chelating ability by spectrophotometric analysis in the same conditions as the ones applied to carry out investigations on Ga^3+ systems. The calculated logβ124(Fe) values were 56.2 (2) and 58.6 (4) for 4 and 5, respectively. From the difference between the logβ values of the complexes with two metal ions, it is possible to calculate the apparent stability constant K (logK = logβ124(Fe) − logβ124(Ga)) associated with the transmetalation reaction (Equation (1)). (1) Fe^3++[Ga(H2L)2]^+ ⇆ […]+[Fe(H2L)2]^+
UV–visible spectra were recorded with a JASCO V-570 UV/Vis/NIR spectrophotometer at 298 K in the 250–600 nm spectral range employing quartz cells (1 cm optical path). To perform spectrophotometric titrations, ligands (denoted generally as L in the following) were dissolved in methanol to give a mother solution (2.50 mM), that was then diluted in water in order to obtain a final concentration of 50 μM. The metal/ligand (M:L) solutions were obtained by adding appropriate quantities of Ga(NO3)3 as methanol solutions (5–10 mM) in order to obtain the metal-to-ligand 1:1 molar ratio (L = 50 μM and V = 25 mL). For both L and M:L systems, pH (initial value of about 5) was varied by adding small amounts (<1 μL) of concentrated NaOH (4 M) up to ca. pH 11, thus to consider volume variations negligible. […] The overall protonation constants (logβqr) and the overall stability constants of metal complexes (logβpqr) were evaluated from spectrophotometric data. […] The quantities are obtained by performing error propagation calculation from the experimental errors onto the parameters. […] The error on logβ is calculated as follows: σ(logβ) = [log(β + σ) − log(β − σ)]/2.
Hydroxide species, such as [Ga(OH)2]^+, were taken into account for calculations. The hydrolysis constants for Ga^3+ are as follows: logβ1,1,0 = −3.93; logβ2,1,0 = −7.73; logβ3,1,0 = −12.38; logβ4,1,0 = −15.96; logβ32,13,0 = −66.3; logβ3,1,0(s) = −3.54 [43]; pGa is defined as (−log[Ga^3+]free) and is calculated at specific conditions (Ga^3+total = 1 μM, Ltotal = 10 μM, pH 7.4, 25 °C). […]

A short description of data set [2]: Keto-enol/diketo tautomer amounts by 1H NMR. Format: physicochemical. The note with it: molar percentage, MeOD-d4, 298 K; for KE (%) amount of keto–enol form: for 2 includes KE form of the Z isomer (6%). As for the experimental part: NMR spectra were recorded by means of a Bruker Biospin FT-NMR AVANCE III HD (600 MHz) spectrometer equipped with a CryoProbe BBO H&F 5 mm in inverse detection. The nominal frequencies were 150.90 MHz for ^13C and 600.13 MHz for ^1H, respectively. For each sample, 1–5 mg were weighed and diluted up to 0.6 mL with a proper solvent in a 5 mm NMR tube; 90° pulse was calibrated for each sample, and standard NMR parameters were used to achieve quantitative results (relaxation delay, 10 s). Proton and carbon chemical shifts are given in parts per million (ppm) versus external TMS and were determined by reference to the solvent residual signals. Typical 2D homo- and heteronuclear techniques were used for assignment, i.e., ^1H,^1H COSY, ^1H,^13C HSQC, ^1H,^13C HMBC. NMR investigations of Ga^3+:L systems were performed in MeOD-d4 by adding small amounts of a Ga(NO3)3 solution (10 μL each) to 1 mM ligand solution (0.6 mL) until reaching the desired metal-to-ligand molar ratio. The complexation reaction is fast, and spectra were registered few minutes after the addition. Two-dimensional ^1H,^13C heteronuclear multiple bond correlation (HMBC) experiments (hmbcgpndqf in Bruker library) were performed via heteronuclear zero and double quantum coherence, optimized on long-range couplings (^3/4JHC = 8 Hz), with no decoupling during acquisition, and gradient pulses were used for selection. The relative percentages of the isomeric forms were estimated on the basis of the NMR data. Particularly, ^1H NMR spectra were acquired in quantitative conditions being D1 (relaxation delay) at least five times the T1 of the slowest relaxing signal of interest. The raw data were Fourier-transformed, and then the processing was performed by zero filling (SI = TD), line broadening (lb 0.3 Hz), accurate phasing and correcting the baseline. The most isolated signals were selected for integration, i.e., the vinyl protons (H-3 and H-4), and an average of the integrated area (A) of H-3 and H-4 was used for relative quantitation, according to the following equation: %Tautomeri=(A(H−3)i+(A(H−4)i)/2/∑i(A(H−3)i+(A(H−4)i)/2×100

Data set [3] has as its system HCT116 colon carcinoma cells. Nature of the data set: MTT cell viability assay. The settings on record: mean. Format: cell-based, Human. Here is the method:
Human colorectal carcinoma HCT116 cells (#91091005, ECACC) were grown in an IMDM medium (Biowest) supplemented with 2 mM glutamine, 100 IU/mL penicillin, 100 μg/mL streptomycin and 10% FBS (Gibco). The cell lines were grown at 37 °C in a humidified incubator containing 5% CO2. The cells were verified to be mycoplasma-free and passaged < 3 months. The inhibition of cell proliferation was measured by colorimetric 3-(4,5-dimethylthiazol-2-yl)-2,5-diphenyltetrazolium bromide (MTT) assay. GI50 concentrations were determined using the CompuSyn software version 1.0 (ComboSyn, Inc., Paramus, NJ USA) (free download via www.combosyn.com, accessed on 30 May 2022), and statistical analyses were performed using the GraphPad PRISM software (version 6.01 for Windows, GraphPad Software, San Diego, California USA GraphPad Prism) using unpaired t-test. Data were considered to be statistically significant if p < 0.05 (*), p < 0.01 (**), p < 0.001(***) and p < 0.0001 (****).

As a reminder, the GI50 is the concentration at which growth is held to half of that of the control. Low readings indicate greater sensitivity of the cells, high ones lower sensitivity of the cells. With “2-((4Z,6E)-5-hydroxy-7-(4-hydroxyphenyl)-4-((E)-3-(4-hydroxy-3-ethoxyphenyl) acryloyl) hepta-4,6-dien-1-yl)isoindoline-1,3-dione [Compound 5]”, in data set [1], the “logβ124(Fe)” value is 58.6 (4). Also, in data set [2], the “KK (%) amount of diketo form” value was determined as 30% and the “KE (%) amount of keto–enol form” value was 70%. Also, it took 8.76 µM to inhibit growth in data set [3] (HCT116, 48 h of treatment) by half (GI50).

With `COc1cc(/C=C/C(=O)C(CCCN2C(=O)c3ccccc3C2=O)C(=O)/C=C/c2ccc(O)c(OC)c2)ccc1O` [Compound 4], the “LogK apparent stability constant of transmetalation (logβ124(Fe) − logβ124(Ga))” value in data set [1] (Fe^3+ + [Ga(H2L)2]^+ exchange) is 0.9(3). In addition, in data set [1], the “logβ124(Fe)” value is recorded as 56.2 (2). In addition, in data set [2], the “KK (%) amount of diketo form” value is given as 53% and the “KE (%) amount of keto–enol form” value came out at 47%. Also, growth in data set [3] (Homo sapiens, HCT-116, HCT116, 48 h of treatment) was halved (GI50) at 5.36 µM.
